Here are results for 19 compounds from US11993599B2, “Therapeutic compounds” (Genentech, Inc., priority 2021, dated 2024).

One test deals with BRM (Homo sapiens, UniProt P51531). The test can be described thus: Immunofluorescence assay for BRM degradation in SW1573 cells. In kind it is cell-based. More on the design: treated overnight at 4° C. with either BRM primary antibody (Cell signaling Cat #11966) or BRG primary antibody; endogenous in cells; host or cells: SW1573. The note with it: 20 hours incubation; for DC50: immunofluorescence mean nuclear signal, read-out: BRM IF Degradation IC50; for BRM IF Degradation Sinf (%): normalized to a known degrader control. Put shortly:
(§1)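 After a 20 h incubation with test compound, SW1573 cells are fixed and stained for BRM or BRG1 plus Hoechst. Per-cell mean nuclear intensity, referenced to a degrader control, is fit concentration-dependently with unconstrained maximum for Dmax.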

Another test addresses T1, BRG1 (Homo sapiens, UniProt P51532).
T1 construct: either BRM primary antibody (Cell signaling Cat #11966) or BRG primary antibody (Abcam, ab 110641); endogenous in cells; host or cells: SW1573
The experiment in a line: Immunofluorescence assay for BRG1 degradation in SW1573 cells. In kind it is cell-based. Conditions: 20 hours incubation; for DC50: immunofluorescence mean nuclear signal, read-out: BRG1 IF Degradation IC50; for Dmax: SW1573, 20 h, normalized to a known degrader control, read-out: BRG1 IF Degradation Sinf (%). The method, boiled down:
as §1

Chain of BRM (P51531 whole entry): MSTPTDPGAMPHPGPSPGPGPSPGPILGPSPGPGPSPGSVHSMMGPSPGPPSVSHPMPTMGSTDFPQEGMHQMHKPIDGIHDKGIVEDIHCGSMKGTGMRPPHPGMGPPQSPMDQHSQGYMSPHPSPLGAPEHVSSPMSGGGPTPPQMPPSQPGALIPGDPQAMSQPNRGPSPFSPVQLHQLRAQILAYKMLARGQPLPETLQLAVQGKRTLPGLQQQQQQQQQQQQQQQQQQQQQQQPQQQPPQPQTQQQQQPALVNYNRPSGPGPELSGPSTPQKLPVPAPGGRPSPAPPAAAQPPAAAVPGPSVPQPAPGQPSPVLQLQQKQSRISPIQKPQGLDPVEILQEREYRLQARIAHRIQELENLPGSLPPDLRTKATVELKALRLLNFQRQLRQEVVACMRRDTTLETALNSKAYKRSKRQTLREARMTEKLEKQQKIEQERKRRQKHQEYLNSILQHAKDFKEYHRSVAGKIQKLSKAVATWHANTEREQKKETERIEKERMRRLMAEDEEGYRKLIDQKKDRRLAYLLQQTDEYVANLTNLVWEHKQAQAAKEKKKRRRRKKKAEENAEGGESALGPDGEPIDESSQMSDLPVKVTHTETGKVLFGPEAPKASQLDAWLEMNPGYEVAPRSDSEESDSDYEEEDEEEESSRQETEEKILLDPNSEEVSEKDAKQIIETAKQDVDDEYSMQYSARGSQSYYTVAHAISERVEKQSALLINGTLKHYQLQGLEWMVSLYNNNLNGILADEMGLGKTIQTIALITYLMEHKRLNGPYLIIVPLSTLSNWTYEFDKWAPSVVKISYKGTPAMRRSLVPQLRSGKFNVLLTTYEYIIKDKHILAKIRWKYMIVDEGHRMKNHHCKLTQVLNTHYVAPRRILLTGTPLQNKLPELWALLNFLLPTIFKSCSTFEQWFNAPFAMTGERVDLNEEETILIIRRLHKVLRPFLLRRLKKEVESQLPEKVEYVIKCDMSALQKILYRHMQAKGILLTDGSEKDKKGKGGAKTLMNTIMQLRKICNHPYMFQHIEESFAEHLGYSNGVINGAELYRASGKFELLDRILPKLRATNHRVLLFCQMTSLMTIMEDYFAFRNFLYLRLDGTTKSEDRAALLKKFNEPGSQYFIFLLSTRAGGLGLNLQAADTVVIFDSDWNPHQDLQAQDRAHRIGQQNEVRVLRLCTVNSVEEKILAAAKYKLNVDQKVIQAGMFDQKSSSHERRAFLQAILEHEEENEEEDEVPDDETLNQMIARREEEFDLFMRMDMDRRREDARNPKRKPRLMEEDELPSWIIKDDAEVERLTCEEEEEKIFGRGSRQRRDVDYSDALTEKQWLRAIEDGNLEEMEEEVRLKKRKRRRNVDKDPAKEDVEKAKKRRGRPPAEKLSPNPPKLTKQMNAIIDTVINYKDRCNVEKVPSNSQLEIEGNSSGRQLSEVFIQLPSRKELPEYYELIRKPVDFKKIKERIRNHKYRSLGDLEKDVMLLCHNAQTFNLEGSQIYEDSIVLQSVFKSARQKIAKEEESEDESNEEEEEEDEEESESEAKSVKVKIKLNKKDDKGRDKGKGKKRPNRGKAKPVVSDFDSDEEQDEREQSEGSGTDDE
T1 sequence (P51532 whole entry): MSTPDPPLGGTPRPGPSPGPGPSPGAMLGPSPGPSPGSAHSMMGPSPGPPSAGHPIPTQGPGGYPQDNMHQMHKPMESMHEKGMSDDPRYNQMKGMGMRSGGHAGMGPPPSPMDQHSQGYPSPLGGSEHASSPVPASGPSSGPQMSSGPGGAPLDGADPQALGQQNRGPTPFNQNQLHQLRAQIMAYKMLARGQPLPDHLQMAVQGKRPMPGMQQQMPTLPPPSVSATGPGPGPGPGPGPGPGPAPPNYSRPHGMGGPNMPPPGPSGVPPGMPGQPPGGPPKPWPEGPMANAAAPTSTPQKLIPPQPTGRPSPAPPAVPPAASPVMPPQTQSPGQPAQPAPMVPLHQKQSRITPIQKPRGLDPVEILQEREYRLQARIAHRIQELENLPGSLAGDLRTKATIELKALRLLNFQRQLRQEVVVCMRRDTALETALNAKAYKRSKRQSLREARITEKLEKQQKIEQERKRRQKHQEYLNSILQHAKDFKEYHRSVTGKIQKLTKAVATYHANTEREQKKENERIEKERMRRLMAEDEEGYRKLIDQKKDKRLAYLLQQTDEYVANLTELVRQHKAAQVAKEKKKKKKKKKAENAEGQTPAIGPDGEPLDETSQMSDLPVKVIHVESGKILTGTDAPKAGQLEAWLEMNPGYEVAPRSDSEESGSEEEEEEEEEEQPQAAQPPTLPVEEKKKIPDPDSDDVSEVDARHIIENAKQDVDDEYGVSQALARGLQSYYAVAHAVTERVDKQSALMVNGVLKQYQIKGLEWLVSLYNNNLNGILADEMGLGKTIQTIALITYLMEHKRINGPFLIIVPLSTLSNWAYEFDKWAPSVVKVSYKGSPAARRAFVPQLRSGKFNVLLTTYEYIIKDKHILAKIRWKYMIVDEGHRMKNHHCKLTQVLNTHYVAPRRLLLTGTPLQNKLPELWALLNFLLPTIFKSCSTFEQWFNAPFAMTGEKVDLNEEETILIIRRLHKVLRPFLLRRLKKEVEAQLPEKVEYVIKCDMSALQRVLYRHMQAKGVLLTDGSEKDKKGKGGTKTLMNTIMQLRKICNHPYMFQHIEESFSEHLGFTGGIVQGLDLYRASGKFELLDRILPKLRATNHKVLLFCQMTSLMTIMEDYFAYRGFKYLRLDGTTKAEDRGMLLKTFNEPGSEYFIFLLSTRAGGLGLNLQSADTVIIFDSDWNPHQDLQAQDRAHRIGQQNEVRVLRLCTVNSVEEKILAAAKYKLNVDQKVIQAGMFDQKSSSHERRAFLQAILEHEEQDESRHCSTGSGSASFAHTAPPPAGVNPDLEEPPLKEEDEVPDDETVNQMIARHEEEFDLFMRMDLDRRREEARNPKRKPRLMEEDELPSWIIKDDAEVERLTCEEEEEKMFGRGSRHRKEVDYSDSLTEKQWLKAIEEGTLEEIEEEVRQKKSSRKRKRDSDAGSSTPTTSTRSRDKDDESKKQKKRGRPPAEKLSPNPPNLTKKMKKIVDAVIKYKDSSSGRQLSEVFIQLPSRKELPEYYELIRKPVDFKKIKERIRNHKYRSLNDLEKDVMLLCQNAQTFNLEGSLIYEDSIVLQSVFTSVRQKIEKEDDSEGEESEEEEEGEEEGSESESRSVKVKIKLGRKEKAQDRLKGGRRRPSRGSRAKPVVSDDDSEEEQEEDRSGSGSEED

With `Nc1nnc(-c2ccccc2O)cc1N1CC2CCC(C1)N2c1ccnc(C#CCN2CCOC3(CCC3)C2)c1` [Compound 77], at BRM, the DC50 was 10 to 100 nM and the “BRM IF Degradation Sinf (%)” value is “E (E indicates −30%-−70%)”. For the same compound, the DC50 at BRG1 is more than 100 nM.

With `Nc1nnc(-c2ccccc2O)cc1N1CC2CCC(C1)N2c1ccnc(C#CCN2CCC3CC[C@@H](O)C32)c1` (stereo partly drawn) [Compound 78, (6R)-1-[3-[4-[3-[3-amino-6-(2-hydroxyphenyl)pyridazin-4-yl]-3,8-diazabicyclo[3.2.1]octan-8-yl]-2-pyridyl]prop-2-ynyl]-3,3a,4,5,6,6a-hexahydro-2H-cyclopenta[b]pyrrol-6-ol], on BRM, the DC50 is less than 10 nM and the “BRM IF Degradation Sinf (%)” value was “E (E indicates −30%-−70%)”. Further, the DC50 on BRG1 is more than 100 nM.

As to `CC1CN(CC#Cc2cc(N3C4CCC3CN(c3cc(-c5ccccc5O)nnc3N)C4)ccn2)CC(C)O1` (stereo not drawn) [Compound 79, 2-[6-amino-5-[8-[2-[3-(2,6-dimethylmorpholin-4-yl)prop-1-ynyl]-4-pyridyl]-3,8-diazabicyclo[3.2.1]octan-3-yl]pyridazin-3-yl]phenol], on BRM, the DC50 is 10 to 100 nM and the “BRM IF Degradation Sinf (%)” value is given as “E (E indicates −30%-−70%)”. In addition, the DC50 on BRG1 is more than 100 nM.

On to `Nc1nnc(-c2ccccc2O)cc1N1CC2CCC(C1)N2c1ccnc(C#CCN2CCC(N3CCOCC3)C2)c1` (stereo not drawn) [Compound 80, 2-[6-amino-5-[8-[2-[3-(3-morpholinopyrrolidin-1-yl)prop-1-ynyl]-4-pyridyl]-3,8-diazabicyclo[3.2.1]octan-3-yl]pyridazin-3-yl]phenol], for which, on BRM, the DC50 is 10 to 100 nM and the “BRM IF Degradation Sinf (%)” value was “E (E indicates −30%-−70%)”. Moreover, on BRG1, the DC50 is less than 10 nM and the Dmax was 0 to 30%.

`Nc1nnc(-c2ccccc2O)cc1N1CC2CCC(C1)N2c1ccnc(C#CCN2CC3CCOC3C2)c1` (stereo not drawn) [Compound 81, 2-[5-[8-[2-[3-(2,3,3a,4,6,6a-hexahydrofuro[2,3-c]pyrrol-5-yl)prop-1-ynyl]-4-pyridyl]-3,8-diazabicyclo[3.2.1]octan-3-yl]-6-amino-pyridazin-3-yl]phenol]: at BRM, the DC50 is less than 10 nM and the “BRM IF Degradation Sinf (%)” value is listed as “E (E indicates −30%-−70%)”. Moreover, on BRG1, the DC50 is less than 10 nM and the Dmax lay in the range of 30 to 70%.

On to `COC1C2CCC1N(CC#Cc1cc(N3C4CCC3CN(c3cc(-c5ccccc5O)nnc3N)C4)ccn1)C2` (stereo not drawn) [Compound 82, 2-[6-amino-5-[8-[2-[3-(7-methoxy-2-azabicyclo[2.2.1]heptan-2-yl)prop-1-ynyl]-4-pyridyl]-3,8-diazabicyclo[3.2.1]octan-3-yl]pyridazin-3-yl]phenol], for which, on BRM, the DC50 is less than 10 nM and the “BRM IF Degradation Sinf (%)” value is “E (E indicates −30%-−70%)”. Further, on BRG1, the DC50 is less than 10 nM and the Dmax lay within 30 to 70%.

`Nc1nnc(-c2ccccc2O)cc1N1CC2CCC(C1)N2c1ccnc(C#CCN2CC3COCC(C2)C3O)c1` (stereo not drawn) [Compound 83, 7-[3-[4-[3-[3-amino-6-(2-hydroxyphenyl)pyridazin-4-yl]-3,8-diazabicyclo[3.2.1]octan-8-yl]-2-pyridyl]prop-2-ynyl]-3-oxa-7-azabicyclo[3.3.1]nonan-9-ol]: on BRM, the DC50 was more than 100 nM and the “BRM IF Degradation Sinf (%)” value is on record as “E (E indicates −30%-−70%)”. Besides, at BRG1, the DC50 lay in the range of 10 to 100 nM and the Dmax was in the range of 30 to 70%.

Regarding `Nc1nnc(-c2ccccc2O)cc1N1CC2CCC(C1)N2c1ccnc(C#CCN2CCC3(C2)CC3(F)F)c1` (stereo not drawn) [Compound 84, 2-[6-amino-5-[8-[2-[3-(2,2-difluoro-5-azaspiro[2.4]heptan-5-yl)prop-1-ynyl]-4-pyridyl]-3,8-diazabicyclo[3.2.1]octan-3-yl]pyridazin-3-yl]phenol], the DC50 was less than 10 nM at BRM and more than 100 nM at BRG1. Also, on BRM, the “BRM IF Degradation Sinf (%)” value is “E (E indicates −30%-−70%)”.

As to `CN(CC#Cc1cc(N2C3CCC2CN(c2cc(-c4ccccc4O)nnc2N)C3)ccn1)CC(=O)N1CCOCC1` [Compound 85, 2-[3-[4-[3-[3-amino-6-(2-hydroxyphenyl)pyridazin-4-yl]-3,8-diazabicyclo[3.2.1]octan-8-yl]-2-pyridyl]prop-2-ynyl-methyl-amino]-1-morpholino-ethanone], the DC50 at BRM and at BRG1 was more than 100 nM throughout. Further, at BRM, the “BRM IF Degradation Sinf (%)” value is “E (E indicates −30%-−70%)”.

Take `Nc1nnc(-c2ccccc2O)cc1N1CC2CCC(C1)N2c1ccnc(C#CCN2CC3CC2C3)c1` [Compound 86, 2-[6-amino-5-[8-[2-[3-(2-azabicyclo[2.1.1]hexan-2-yl)prop-1-ynyl]-4-pyridyl]-3,8-diazabicyclo[3.2.1]octan-3-yl]pyridazin-3-yl]phenol]: on BRM, the DC50 is less than 10 nM and the “BRM IF Degradation Sinf (%)” value is “E (E indicates −30%-−70%)”. On BRG1, the DC50 was less than 10 nM and the Dmax lay in the range of 30 to 70%.

Turning to `Nc1nnc(-c2ccccc2O)cc1N1CC2CCC(C1)N2c1ccnc(C#CCN2CCC3CC32)c1` (stereo not drawn) [Compound 87, 2-[6-amino-5-[8-[2-[3-(2-azabicyclo[3.1.0]hexan-2-yl)prop-1-ynyl]-4-pyridyl]-3,8-diazabicyclo[3.2.1]octan-3-yl]pyridazin-3-yl]phenol], on BRM, the DC50 is less than 10 nM and the “BRM IF Degradation Sinf (%)” value is “E (E indicates −30%-−70%)”. Moreover, on BRG1, the DC50 was less than 10 nM and the Dmax was 30 to 70%.

Turning to `Nc1nnc(-c2ccccc2O)cc1N1CC2CCC(C1)N2c1ccnc(C#CCN2CCC3COCC3C2)c1` (stereo not drawn) [Compound 88, 2-[5-[8-[2-[3-(3,3a,4,6,7,7a-hexahydro-1H-furo[3,4-c]pyridin-5-yl)prop-1-ynyl]-4-pyridyl]-3,8-diazabicyclo[3.2.1]octan-3-yl]-6-amino-pyridazin-3-yl]phenol], at BRM, the DC50 was less than 10 nM and the “BRM IF Degradation Sinf (%)” value is given as “E (E indicates −30%-−70%)”. Besides, at BRG1, the DC50 is less than 10 nM and the Dmax fell in the range of 0 to 30%.

In the case of `CNC(=O)C1COCCN1CC#Cc1cc(N2C3CCC2CN(c2cc(-c4ccccc4O)nnc2N)C3)ccn1` (stereo not drawn) [Compound 89, 4-[3-[4-[3-[3-amino-6-(2-hydroxyphenyl)pyridazin-4-yl]-3,8-diazabicyclo[3.2.1]octan-8-yl]-2-pyridyl]prop-2-ynyl]-N-methyl-morpholine-3-carboxamide], at BRM, the DC50 was 10 to 100 nM and the “BRM IF Degradation Sinf (%)” value is reported as “E (E indicates −30%-−70%)”. Moreover, at BRG1, the DC50 was more than 100 nM.

In the case of `Nc1nnc(-c2ccccc2O)cc1N1CC2CCC(C1)N2c1ccnc(C#CCN2CCC[C@@H]3OCC[C@@H]32)c1` [Compound 90, 2-[5-[8-[2-[3-[(3aS,7aS)-3,3a,5,6,7,7a-hexahydro-2H-furo[3,2-b]pyridin-4-yl]prop-1-ynyl]-4-pyridyl]-3,8-diazabicyclo[3.2.1]octan-3-yl]-6-amino-pyridazin-3-yl]phenol], at BRM, the DC50 was 10 to 100 nM and the “BRM IF Degradation Sinf (%)” value is reported as “E (E indicates −30%-−70%)”. Moreover, at BRG1, the DC50 lay within 10 to 100 nM and the Dmax is 0 to 30%.

As for `Nc1nnc(-c2ccccc2O)cc1N1CC2CCC(C1)N2c1ccnc(C#CCN2CC3CCC3C2)c1` (stereo not drawn) [Compound 91, 2-[6-amino-5-[8-[2-[3-(3-azabicyclo[3.2.0]heptan-3-yl)prop-1-ynyl]-4-pyridyl]-3,8-diazabicyclo[3.2.1]octan-3-yl]pyridazin-3-yl]phenol], at BRM, the DC50 was less than 10 nM and the “BRM IF Degradation Sinf (%)” value is “E (E indicates −30%-−70%)”. On BRG1, the DC50 is less than 10 nM and the Dmax lay within 30 to 70%.

On to `Nc1nnc(-c2ccccc2O)cc1N1CC2CCC(C1)N2c1ccnc(C#CCN2CC3CCOCC3C2)c1` (stereo not drawn) [Compound 92, 2-[5-[8-[2-[3-(3,3a,4,6,7,7a-hexahydro-1H-pyrano[3,4-c]pyrrol-2-yl)prop-1-ynyl]-4-pyridyl]-3,8-diazabicyclo[3.2.1]octan-3-yl]-6-amino-pyridazin-3-yl]phenol], for which, on BRM, the DC50 was less than 10 nM and the “BRM IF Degradation Sinf (%)” value is given as “F (F indicates −71%-−120%)”. In addition, at BRG1, the DC50 was less than 10 nM and the Dmax lay within 30 to 70%.

As to `Nc1nnc(-c2ccccc2O)cc1N1CC2CCC(C1)N2c1ccnc(C#CCN2CC3CCC(C3)C2)c1` [Compound 93, 2-[6-amino-5-[8-[2-[3-(3-azabicyclo[3.2.1]octan-3-yl)prop-1-ynyl]-4-pyridyl]-3,8-diazabicyclo[3.2.1]octan-3-yl]pyridazin-3-yl]phenol], at BRM, the DC50 was less than 10 nM and the “BRM IF Degradation Sinf (%)” value was “E (E indicates −30%-−70%)”. In addition, the DC50 at BRG1 was more than 100 nM.

For the compound `Nc1nnc(-c2ccccc2O)cc1N1CC2CCC(C1)N2c1ccnc(C#CCN2CCC3CCCC32)c1` (stereo not drawn) [Compound 94, 2-[5-[8-[2-[3-(3,3a,4,5,6,6a-hexahydro-2H-cyelopenta[b]pyrrol-1-yl)prop-1-ynyl]-4-pyridyl]-3,8-diazabicyclo[3.2.1]octan-3-yl]-6-amino-pyridazin-3-yl]phenol], at BRM, the DC50 is less than 10 nM and the “BRM IF Degradation Sinf (%)” value is given as “E (E indicates −30%-−70%)”. In addition, at BRG1, the DC50 was less than 10 nM and the Dmax lay in the range of 30 to 70%.

`Nc1nnc(-c2ccccc2O)cc1N1CC2CCC(C1)N2c1ccnc(C#CCN2CC(C(F)F)C2)c1` [Compound 95, 2-[6-amino-5-[8-[2-[3-[3-(difluoromethyl)azetidin-1-yl]prop-1-ynyl]-4-pyridyl]-3,8-diazabicyclo[3.2.1]octan-3-yl]pyridazin-3-yl]phenol]: on BRM, the DC50 was less than 10 nM and the “BRM IF Degradation Sinf (%)” value is listed as “E (E indicates −30%-−70%)”. Moreover, at BRG1, the DC50 was less than 10 nM and the Dmax lay in the range of 30 to 70%.
